Source: patent US20050281749A1, “Sprayable compositions comprising a combination of pharmaceutical actives and an oily phase” (GALDERMA S.A., priority 2004, published 2005)

Experiments:
[1] = Stability of calcitriol in Miglyol 812 (caprylic/capric triglycerides), HPLC assay; format: physicochemical; settings: calcitriol 30 ppm in Miglyol 812 with 0.4% BHT
Description: (§1) a) Stability of calcitriol in Miglyol 812 (caprylic/capric triglycerides): Solution of calcitriol 30 ppm in qs 100% of Miglyol 812 in the presence of 0.4% of BHT. HPLC assay technique against reference substance. At the starting time (TO) the composition is considered to contain 100% of calcitriol. Concentration of calcitriol measured in % relative to TO: […]

[2] = Stability of calcitriol in Cetiol SN (cetearyl isononanoate), HPLC assay; format: physicochemical; settings: calcitriol 30 ppm in Cetiol SN with 0.4% BHT
Description: as §1, with “b)” for “a)”, “Cetiol SN (cetearyl isononanoate):” for “Miglyol 812 (caprylic/capric triglycerides):”, “Cetiol SN (cetearyl isononanoate)” for “Miglyol 812”

Concentration of calcitriol measured in % relative to TO ([1]; +4° C., T 2 weeks): 98.3%
Concentration of calcitriol measured in % relative to TO ([1]; +4° C., T 4 weeks): 105.2%
Concentration of calcitriol measured in % relative to TO ([1]; +40° C., T 2 weeks): 91%
Concentration of calcitriol measured in % relative to TO ([1]; +40° C., T 4 weeks): 93.8%
Concentration of calcitriol measured in % relative to TO ([1]; AT, T 2 weeks): 95.1%
Concentration of calcitriol measured in % relative to TO ([1]; AT, T 4 weeks): 98.0%
Concentration of calcitriol measured in % relative to TO ([2]; +4° C., T 2 weeks): 98.6%
Concentration of calcitriol measured in % relative to TO ([2]; +4° C., T 4 weeks): 98.1%
Concentration of calcitriol measured in % relative to TO ([2]; +40° C., T 2 weeks): 99.0%
Concentration of calcitriol measured in % relative to TO ([2]; +40° C., T 4 weeks): 98.9%
Concentration of calcitriol measured in % relative to TO ([2]; AT, T 2 weeks): 98.7%
Concentration of calcitriol measured in % relative to TO ([2]; AT, T 4 weeks): 98.4%
Structure (SMILES): C=C1/C(=C\C=C2/CCC[C@]3(C)[C@@H]([C@H](C)CCCC(C)(C)O)CC[C@@H]23)C[C@@H](O)C[C@@H]1O [calcitriol]
